Measurements: patent publication US20220160651A1, “RAPIDLY IMPROVING ENDOTHELIAL FUNCTION, REDUCING ARTERIAL STIFFNESS AND REVERSING CALCIFICATION OF BLOOD VESSELS BY ADMINISTERING VITAMIN K” (KAYDENCE PHARMA AS, priority 2019, published 2022)
“And” between values parts separate entries of the source, which are not always exact repeats. Identical values can stand only once.

Legend:
[1] = system: kidney transplantation patients; assay: Clinical study: non-invasive pulse wave velocity measurement of arterial stiffness; assay type: in vivo, human; conditions: 360 ug/day, after 8 weeks of treatment, kidney transplant patients
Description: Clinical Study to study the efficacy and safety of Vitamin K2 supplementation on arterial stiffness, the rigidity of arterial walls, in kidney transplantation patients.
A clinical study was carried out. Arterial wall property measurements were taken at t=0 and t=8 weeks and show a dramatic improvement in arterial wall flexibility. This is good support for concluding that the ingestion of vitamin K, even over this short period, is an effective way of improving endothelial function, reducing arterial stiffness and reducing calcification. […] It is surprising and unexpected because calcification is a slow progressive process and it was thought that reversing this process would also be slow and progressive.
Participants were enrolled in a clinical trial in which the effects of vitamin K2 were determined for patients who had recently undergone a kidney transplant. At the beginning of the study, patients were subjected to a non-invasive pulse wave velocity measurement to measure arterial stiffness/flexibility, as well as blood analysis. The study participants were then instructed to receive a specific daily dose of MenaQ7 vitamin K2 menaquinone-7 (360 ug/day) for a total of 8 weeks. At the end of 8 weeks, patients were again examined with a follow-up examination, a non-invasive pulse wave velocity measurement and blood analysis and drug treatment was discontinued.

[2] = system: thrombin generation in platelet-poor mice plasma; assay: Thrombin generation by calibrated automated thrombogram (CAT); assay type: in vivo; conditions: either dose (0.03 or 10 mg/kg b.w./day), eight weeks
Description: Thrombin generation was measured in platelet-poor mice plasma using calibrated automated thrombography (CAT) technique as described in Hemker H C, Giesen P, Al Dieri R, Regnault V, de Smedt E, Wagenvoord R, et al. Calibrated automated thrombin generation measurement in clotting plasma. Pathophysiol Haemost Thromb 2003; 33:4-15. doi:71636. Thrombin generation was activated by mixing 21 μl of diluted plasma (1:1 with BSAS buffer) with 7 μIL of fluorogenic substrate (Z-Gly-Gly-Arg-AMC, 16.6 mM) and 14 μl of trigger solution containing phospholipids, tissue factor and CaCl2 (4 μM, […] and 16.6 mM, respectively). In the calibration wells, the 14 μl of reagents were replaced with calibrator (102 nM). Immediately after the activation, 5 μl of the mixture was pipetted on paper disks in a flat bottom 96-well polystyrene plate and covered with 40 μl of mineral oil. Fluorescent signals were measured using the Fluoroskan Ascent software (Thermo Labsystems, Helsinki, Finland) and transformed into thrombin concentration as described in Hemker H C, Kremers R. Data management in Thrombin Generation. Thromb Res 2013; 131:3-11. doi:10.1016/j.thromres.2012.10.011. The parameters analyzed included endogenous thrombin potential (ETP), peak thrombin concentration (peak), and lag time.

ApoE/LDLR−/− mice = assay: MRI-based assessment of NO-dependent vasodilatation in BCA and LCA after acetylcholine (Example 2); assay type: in vivo; conditions: two months, 25 min after Ach
Description: The effects of low-doses (0.03 mg/kg b.w./day) as well as high-doses (10 mg/kg b.w./day) of vitamin K2 (MK-7), on endothelial function in mice with pre-established atherosclerosis was assessed. The mice were treated with K2 (MK-7) for two months and endothelial function was analyzed in vivo based on functional study (MRI based assessment of NO-dependent vasodilation) as well as by biochemical analysis (plasma nitrate and nitrite concentration). In addition, a comprehensive qualitative and quantitative histological analysis of the effects of K2 (MK-7) on vascular wall structure and atherosclerosis plaque composition was performed.
Endpoint assays: Magnetic resonance imaging (MRI)-based assessment of nitric oxide (NO)-dependent vasodilatation in brachiocephalic (BCA) and left common carotid artery (LCA) after acetylcholine (Ach) administration—by MRI 9.4T scanner, total time of measurements: 114 h (1.5 h per animal), acetylcholine (Ach, 16.6 mg/kg b.w.)
Studies were performed on 4-month old female ApoE/LDLR−/− mice, the model initially described by Ishibashi S, Herz J, Maeda N, Goldstein J, Brown M. The two-receptor model of lipoprotein clearance: tests of the hypothesis in “knockout” mice lacking the low density lipoprotein receptor, apolipoprotein E, or both proteins. Proc Natl Acad Sci USA 1994; 10:4431-5., and extensively characterized in previous studies, [see Kostogrys RB, Franczyk-Zarow M, Gasior-Glogowska M, Kus E, Jasztal A, Wrobel T P, et al. Anti-atherosclerotic effects of pravastatin in brachiocephalic artery in comparison with en face aorta and aortic roots in ApoE/LDLR−/− mice. Pharmacol Reports 2017; 69:112-8. doi:10.1016/j.pharep.2016.09.014; Tyrankiewicz U, Skorka T, Orzylowska A, Jablonska M, Jasinski K, Jasztal A, et al. Comprehensive MRI for the detection of subtle alterations in diastolic cardiac function in apoE/LDLR −/− mice with advanced atherosclerosis. […] End-diastolic volumes of BCA and LCA were analyzed using ImageJ software (1.46r NIH Bethesda, Md., USA) and scripts written in Matlab (MathWorks, Natick, Mass., USA) (FIG. 1A).

SMILES: CC(C)=CCC/C(C)=C/CC/C(C)=C/CC/C(C)=C/CC/C(C)=C/CC/C(C)=C/CC/C(C)=C/CC1=C(C)C(=O)c2ccccc2C1=O [MK-7, menaquinone-7]
- mean reduction in measured pulse-wave velocity [1]: 30%
- thrombin generation [2]: did not affect
- vessel volume change of BCA after Ach injection (ApoE/LDLR−/− mice; high dose 10 mg/kg b.w./day): 3.12%
- vessel volume change of LCA after Ach injection (ApoE/LDLR−/− mice; high dose 10 mg/kg b.w./day): 4.45%
- vessel volume change of LCA after Ach injection (ApoE/LDLR−/− mice; low dose 0.03 mg/kg b.w./day, listed as vitamin MK-7, 0.03 mg/kg/day): ~−3% and −3.92%
